Experimental data: patent US4699924A, “Skin treatment composition” (priority 1983, dated 1987)
Like-named read-outs stand apart in the source and are kept apart here.

Columns and labels:
[1] = tested on: guinea pig foot pad stratum corneum; test: Increase in extensibility of guinea pig foot pad stratum corneum; set-up: Increase in stratum corneum extensibility: unit not given here
Method: The ability of an additive to enhance the delivery to skin of 2-hydroxyoctanoic acid was measured in terms of the increase in extensibility of guinea pig foot pad stratum corneum following contact with each solution.
In this experiment, pieces of guinea pig foot pad stratum corneum, equilibrated at a relative humidity of 65%, were immersed in each solution for 3 hours at 20° C., and then removed, blotted dry and re-equilibrated at the same relative humidity. The extensibility of each piece of guinea pig foot pad stratum corneum was measured before and after this treatment in an extensiometer according to the method described in European Pat. No. 7785.

physchem = conditions: octanol/water
[2] = Dielectric constant of oils measured in a liquid state; assay type: physicochemical
Description: The product can also optionally comprise an oil, fat or wax, herein referred to as "oil" having a dielectric constant of not greater than 3.0.
Examples of preferred "oils", when employed, together with their dielectric constants measured when they are in a liquid state are given below: […]

[3] = as recorded in Handbook of Chemistry & Physics, 57th Edition 1976-77; cited from earlier work
[4] = tested on: guinea pig stratum corneum; test: Delivery of C14 labelled phenol to guinea pig stratum corneum; conditions: in words
Method: The phenol used in the preparation of each emulsion was C^14 labelled phenol.
Pieces of guinea pig stratum corneum were immersed in each of the above emulsions for 20 hours, after which they were removed, blotted dry and the amount of phenol retained by the corneum was measured by a radio tracer technique using a standard methodology.

Compound	Dielectric constant [2]	Dielectric constant [3]	other results
CCCCCCC(O)C(=O)O (stereo not drawn) [2-hydroxyoctanoic acid]	–	–	Increase in stratum corneum extensibility ([1]; 0.2 M 2-hydroxyoctanoic acid + additive at 5% w/w, 3 hours at 20° C., relative humidity 65%): 5; Increase in stratum corneum extensibility / delivery to skin, in words ([1]; conclusion in words): greatly enhanced; logP (physchem): 2.24
CCCCC/C=C\C/C=C\CCCCCCCC(=O)O [linoleic acid]	–	2.71	–
CCCCCCCCCC [n-decane]	–	1.99	–
CCCCCCCCCCCC [n-dodecane]	–	2.02	–
CCCCCCCC/C=C\CCCCCCCC(=O)O [oleic acid]	–	2.46	–
Oc1ccccc1 [phenol]	–	–	Amount of phenol delivered to the skin relative to ordinary emulsion (Control) [4]: enhanced when a gel phase is present

Now from value to molecule, other results behind:

Dielectric constant [2]	Compound	Dielectric constant [3]	other results
10.3	CCCCCCCCO [Octanol]	–	–
< 3.0	CCCCCCCCCCCCCCCC [n-hexadecane]	–	–
< 3.0	CCCCCCCCCCCCCCCCCC [n-octadecane]	–	–
< 3.0	CCCCCCCCCCCCCC [n-tetradecane]	–	–
